In PubChem BioAssay (NCI):
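Here, GI50 denotes the concentration required for 50% inhibition of growth. TGI marks complete inhibition of growth.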

Columns and labels:
Assay in all cases: NCI anticancer screen, dose series, 384-well format
786-0 renal = test system: 786-0 renal
A498 renal = test system: A498 renal
A549 NSCLC = test system: A549 NSCLC
ACHN renal = test system: ACHN renal
BT-549 breast = test system: BT-549 breast
CAKI-1 renal = test system: CAKI-1 renal
CCRF-CEM leukemia = test system: CCRF-CEM leukemia
COLO 205 colon = test system: COLO 205 colon
DU-145 prostate = test system: DU-145 prostate
EKVX NSCLC = test system: EKVX NSCLC
HCC-2998 colon = test system: HCC-2998 colon
HCT-116 colon = test system: HCT-116 colon
HCT-15 colon = test system: HCT-15 colon
HL-60(TB) leukemia = test system: HL-60(TB) leukemia
HOP-62 NSCLC = test system: HOP-62 NSCLC
HOP-92 NSCLC = test system: HOP-92 NSCLC
HS 578T breast = test system: HS 578T breast
HT29 colon = test system: HT29 colon
IGROV1 ovarian = test system: IGROV1 ovarian
K-562 leukemia = test system: K-562 leukemia
KM12 colon = test system: KM12 colon
LOX IMVI melanoma = test system: LOX IMVI melanoma
M14 melanoma = test system: M14 melanoma
MALME-3M melanoma = test system: MALME-3M melanoma
MCF7 breast = test system: MCF7 breast
MDA-MB-231 breast = test system: MDA-MB-231 breast
MDA-MB-435 melanoma = test system: MDA-MB-435 melanoma
MDA-MB-468 breast = test system: MDA-MB-468 breast
MOLT-4 leukemia = test system: MOLT-4 leukemia
NCI-H226 lung = test system: NCI-H226 lung
NCI-H23 lung = test system: NCI-H23 lung
NCI-H322M lung = test system: NCI-H322M lung
NCI-H460 NSCLC = test system: NCI-H460 NSCLC
NCI-H522 lung = test system: NCI-H522 lung
NCI/ADR-RES ovarian = test system: NCI/ADR-RES ovarian
OVCAR-3 ovarian = test system: OVCAR-3 ovarian
OVCAR-4 ovarian = test system: OVCAR-4 ovarian
OVCAR-5 ovarian = test system: OVCAR-5 ovarian
PC-3 prostate = test system: PC-3 prostate
RPMI-8226 leukemia = test system: RPMI-8226 leukemia
RXF 393 renal = test system: RXF 393 renal
SF-268 CNS = test system: SF-268 CNS
SF-295 CNS = test system: SF-295 CNS
SF-539 CNS = test system: SF-539 CNS
SK-MEL-2 melanoma = test system: SK-MEL-2 melanoma
SK-MEL-28 melanoma = test system: SK-MEL-28 melanoma
SK-MEL-5 melanoma = test system: SK-MEL-5 melanoma
SK-OV-3 ovarian = test system: SK-OV-3 ovarian
SN12C renal = test system: SN12C renal
SNB-19 CNS = test system: SNB-19 CNS
SNB-75 CNS = test system: SNB-75 CNS
SR leukemia = test system: SR leukemia
SW-620 colon = test system: SW-620 colon
T-47D breast = test system: T-47D breast
U251 glioblastoma = test system: U251 glioblastoma
UACC-257 melanoma = test system: UACC-257 melanoma
UACC-62 melanoma = test system: UACC-62 melanoma
UO-31 renal = test system: UO-31 renal

What does the source list for COc1c(C)cnc(Cn2cnc3c(Cl)nc(N)nc32)c1C?
GI50 ([…]-0 renal): 89.4 nM; TGI (786-0 renal): 2780 nM; GI50 (A498 renal): 381 nM; TGI (A498 renal): > 100 µM; GI50 (A549 NSCLC): 73.9 nM; TGI (A549 NSCLC): > 100 µM; GI50 (ACHN renal): 163 nM; TGI (ACHN renal): 38 µM; GI50 (BT-549 breast): 50.8 nM; TGI (BT-549 breast): 269 nM; GI50 (CAKI-1 renal): 470 nM; TGI (CAKI-1 renal): 2870 nM; GI50 (CCRF-CEM leukemia): 36.9 nM; TGI (CCRF-CEM leukemia): 430 nM; GI50 (COLO 205 colon): 28.6 nM; TGI (COLO 205 colon): 98.1 nM; GI50 (DU-145 prostate): 40.7 nM; TGI (DU-145 prostate): 1410 nM; GI50 (EKVX NSCLC): 319 nM; TGI (EKVX NSCLC): 5.03 µM; GI50 (HCC-2998 colon): 92.3 nM; TGI (HCC-2998 colon): 438 nM; GI50 (HCT-116 colon): 194 nM; TGI (HCT-116 colon): > 100 µM; GI50 (HCT-15 colon): 59.6 nM; TGI (HCT-15 colon): 13.1 µM; GI50 (HL-60(TB) leukemia): 52.2 nM; TGI (HL-60(TB) leukemia): 172 nM; GI50 (HOP-62 NSCLC): 112 nM; TGI (HOP-62 NSCLC): 1150 nM; GI50 (HOP-92 NSCLC): 241 nM; TGI (HOP-92 NSCLC): 737 nM; GI50 (HS 578T breast): 307 nM; TGI (HS 578T breast): 1410 nM; GI50 (HT29 colon): 61.5 nM; TGI (HT29 colon): > 100 µM; GI50 (IGROV1 ovarian): 55.9 nM; TGI (IGROV1 ovarian): 626 nM; GI50 (K-562 leukemia): 55.8 nM; TGI (K-562 leukemia): 621 nM; GI50 (KM12 colon): 52.3 nM; TGI (KM12 colon): 14 µM; GI50 (LOX IMVI melanoma): 115 nM; TGI (LOX IMVI melanoma): 245 nM; GI50 (M14 melanoma): 287 nM; TGI (M14 melanoma): 18.1 µM; GI50 (MALME-3M melanoma): 189 nM; TGI (MALME-3M melanoma): 438 nM; GI50 (MCF7 breast): 51.2 nM; TGI (MCF7 breast): > 100 µM; GI50 (MDA-MB-231 breast): 272 nM; TGI (MDA-MB-231 breast): 927 nM; GI50 (MDA-MB-435 melanoma): 154 nM; TGI (MDA-MB-435 melanoma): 53.7 µM; GI50 (MDA-MB-468 breast): 62.2 nM; TGI (MDA-MB-468 breast): 276 nM; GI50 (MOLT-4 leukemia): 36.2 nM; TGI (MOLT-4 leukemia): 123 nM; GI50 (NCI-H226 lung): 245 nM; TGI (NCI-H226 lung): > 100 µM; GI50 (NCI-H23 lung): 149 nM; TGI (NCI-H23 lung): 500 nM; GI50 (NCI-H322M lung): 167 nM; TGI (NCI-H322M lung): 80.1 µM; GI50 (NCI-H460 NSCLC): 34 nM; TGI (NCI-H460 NSCLC): 123 nM; GI50 (NCI-H522 lung): 61.7 nM; TGI (NCI-H522 lung): 313 nM; GI50 (NCI/ADR-RES ovarian): 177 nM; TGI (NCI/ADR-RES ovarian): 498 nM; GI50 (OVCAR-3 ovarian): 165 nM; TGI (OVCAR-3 ovarian): 13.8 µM; GI50 (OVCAR-4 ovarian): 286 nM; TGI (OVCAR-4 ovarian): 27.4 µM; GI50 (OVCAR-5 ovarian): 264 nM; TGI (OVCAR-5 ovarian): > 100 µM; GI50 (PC-3 prostate): 137 nM; TGI (PC-3 prostate): 664 nM; GI50 (RPMI-8226 leukemia): 71.5 nM; TGI (RPMI-8226 leukemia): 296 nM; GI50 (RXF 393 renal): 692 nM; TGI (RXF 393 renal): 7.52 µM; GI50 (SF-268 CNS): 133 nM; TGI (SF-268 CNS): 23.8 µM; GI50 (SF-295 CNS): 134 nM; TGI (SF-295 CNS): 654 nM; GI50 (SF-539 CNS): 97.2 nM; TGI (SF-539 CNS): 389 nM; GI50 (SK-MEL-2 melanoma): 482 nM; TGI (SK-MEL-2 melanoma): 783 nM; GI50 (SK-MEL-28 melanoma): 388 nM; TGI (SK-MEL-28 melanoma): 16.2 µM; GI50 (SK-MEL-5 melanoma): 59.6 nM; TGI (SK-MEL-5 melanoma): 16 µM; GI50 (SK-OV-3 ovarian): 264 nM; TGI (SK-OV-3 ovarian): 5 µM; GI50 (SN12C renal): 143 nM; TGI (SN12C renal): 488 nM; GI50 (SNB-19 CNS): 262 nM; TGI (SNB-19 CNS): 5.62 µM; GI50 (SNB-75 CNS): 357 nM; TGI (SNB-75 CNS): 2080 nM; GI50 (SR leukemia): 16.3 nM; TGI (SR leukemia): 31.1 nM; GI50 (SW-620 colon): 78.7 nM; TGI (SW-620 colon): 5.03 µM; GI50 (T-47D breast): 339 nM; TGI (T-47D breast): 14.8 µM; GI50 (U251 glioblastoma): 47.3 nM; TGI (U251 glioblastoma): 1300 nM; GI50 (UACC-257 melanoma): 651 nM; TGI (UACC-257 melanoma): 34.6 µM; GI50 (UACC-62 melanoma): 145 nM; TGI (UACC-62 melanoma): 711 nM; GI50 (UO-31 renal): 74.5 nM; TGI (UO-31 renal): > 100 µM
